Like-named read-outs stand apart in the source and are kept apart here.
What was measured:
EGFR L858R = EGFR L858R (Homo sapiens, UniProt P00533, L858R); assay: EGFR degradation, Total EGFR (L858R-specific) HTRF, NCI-H3255; assay type: cell-based; parameters: NCI-H3255 (harboring EGFR heterozygous L858R mutation); host or cells: NCI-H3255; details: NCI-H3255 cells, 6 hours, Total EGFR HTRF, read-out: H3255 EGFR DC50
Source text: NCI-H1975 (harboring EGFR heterozygous L858R-T790M mutations) and NCI-H3255 (harboring EGFR heterozygous L858R mutation) were purchased from ATCC and NCI, respectively. NCI-H1975+CS (harboring EGFR heterozygous L858R-T790M-C797S mutations) was generated using CRISPR technology to introduce the additional C797S mutation by Horizon Discovery. A431 (harboring EGFR wildtype) was purchased from ATCC. RPMI 1640 no-phenol red medium and fetal bovine serum (FBS) were purchased from Gibco (Grand Island, NY, USA). Cell culture flasks and 384-well microplates were acquired from VWR (Radnor, PA, USA). Phosphorylated (pY1068) EGFR and Total EGFR (using L858R-specific detection antibody and pan-EGFR antibody for EGFR mutant cell lines and EGFR wild-type cell lines, respectively) HTRF assay kits were purchased from Cisbio (Bedford, MA, USA).
Degradation of EGFR protein containing L858R mutation or wild-type was determined based on quantification of FRET signal using a Total EGFR (L858R-specific or pan-EGFR detecting) HTRF assay kit. Phospho-EGFR (pEGFR) inhibition was determined based on quantification of FRET signal using a pY1068 EGFR HTRF assay kit. In separate assay plates, test compounds were added to the 384-well plate from a top concentration of 10 μM with 11 points, half log titration in duplicates. For each assay, 12.5 uL of cells suspended in assay media (RPMI 1640 no-phenol red medium+10% FBS) at cell densities indicated for each cell line in Table 8 below were dispensed using a multi-channel pipette to 384-well low volume white HTRF microplates containing a duplicate concentration range of test compounds and DMSO controls. The plates were kept at 37° C. with 5% CO2 for 6 hours and then incubated with either phospho EGFR or Total EGFR HTRF detection antibodies according to the cell line and EGFR mutant being assayed. Cells treated in the absence of the test compound were the negative control. Positive control was set by wells containing all reagents but no cells. FRET signal was acquired on EnVision™ Multilabel Reader (PerkinElmer, Santa Clara, CA, USA). Compound concentration that achieves 50% degradation and inhibition was reported as DC50 and IC50, respectively.

EGFR L858R-T790M = biological target: T1, EGFR L858R-T790M (Homo sapiens, UniProt P00533, L858R/T790M); assay: EGFR degradation, Total EGFR (L858R-specific) HTRF, NCI-H1975; assay type: cell-based; details: NCI-H1975 cells, 6 hours, Total EGFR HTRF, read-out: H1975 EGFR DC50
T1 construct: NCI-H1975 (harboring EGFR heterozygous L858R-T790M mutations); host or cells: NCI-H1975
T1 sequence (P00533 25-1210 T790M/L858R): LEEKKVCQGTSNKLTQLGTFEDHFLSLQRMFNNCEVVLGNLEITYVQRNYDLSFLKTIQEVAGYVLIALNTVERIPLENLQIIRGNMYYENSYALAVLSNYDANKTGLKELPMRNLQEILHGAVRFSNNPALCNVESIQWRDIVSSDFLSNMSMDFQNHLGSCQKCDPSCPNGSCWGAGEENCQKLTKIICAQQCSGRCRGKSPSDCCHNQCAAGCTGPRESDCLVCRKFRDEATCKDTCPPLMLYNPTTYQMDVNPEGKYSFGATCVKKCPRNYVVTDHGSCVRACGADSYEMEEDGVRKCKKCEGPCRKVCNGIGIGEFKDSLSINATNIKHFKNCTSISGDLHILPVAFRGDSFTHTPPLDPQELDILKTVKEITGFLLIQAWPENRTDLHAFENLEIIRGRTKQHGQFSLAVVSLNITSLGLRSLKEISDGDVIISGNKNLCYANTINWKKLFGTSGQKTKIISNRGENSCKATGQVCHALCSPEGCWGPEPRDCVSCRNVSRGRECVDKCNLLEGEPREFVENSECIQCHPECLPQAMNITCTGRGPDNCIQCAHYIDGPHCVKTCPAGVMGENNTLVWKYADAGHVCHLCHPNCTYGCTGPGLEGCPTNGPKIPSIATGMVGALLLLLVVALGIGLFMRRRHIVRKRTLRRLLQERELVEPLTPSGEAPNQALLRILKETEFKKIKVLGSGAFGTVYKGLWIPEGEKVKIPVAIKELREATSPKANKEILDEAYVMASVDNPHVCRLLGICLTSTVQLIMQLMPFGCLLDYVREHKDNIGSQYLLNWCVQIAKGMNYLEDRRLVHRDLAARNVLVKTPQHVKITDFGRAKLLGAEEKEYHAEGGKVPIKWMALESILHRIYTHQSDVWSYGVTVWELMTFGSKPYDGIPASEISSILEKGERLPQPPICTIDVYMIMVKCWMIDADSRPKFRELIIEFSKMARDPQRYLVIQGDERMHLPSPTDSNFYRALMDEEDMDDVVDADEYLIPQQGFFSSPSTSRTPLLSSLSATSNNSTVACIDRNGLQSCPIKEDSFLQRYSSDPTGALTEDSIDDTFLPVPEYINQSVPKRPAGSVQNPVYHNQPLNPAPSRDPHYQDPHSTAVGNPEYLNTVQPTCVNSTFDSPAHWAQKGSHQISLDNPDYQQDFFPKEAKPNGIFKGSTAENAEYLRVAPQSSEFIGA
Method in brief: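 HTRF read-outs: pY1068 phospho-EGFR for IC50; total EGFR (pan-EGFR in A431, L858R-specific in mutant lines) for DC50. Compounds were titrated 11 points, half-log, from 10 μM in duplicate onto cells in 10% FBS RPMI, incubated 6 h at 37°C.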

Sequence of EGFR L858R (P00533 25-1210 L858R): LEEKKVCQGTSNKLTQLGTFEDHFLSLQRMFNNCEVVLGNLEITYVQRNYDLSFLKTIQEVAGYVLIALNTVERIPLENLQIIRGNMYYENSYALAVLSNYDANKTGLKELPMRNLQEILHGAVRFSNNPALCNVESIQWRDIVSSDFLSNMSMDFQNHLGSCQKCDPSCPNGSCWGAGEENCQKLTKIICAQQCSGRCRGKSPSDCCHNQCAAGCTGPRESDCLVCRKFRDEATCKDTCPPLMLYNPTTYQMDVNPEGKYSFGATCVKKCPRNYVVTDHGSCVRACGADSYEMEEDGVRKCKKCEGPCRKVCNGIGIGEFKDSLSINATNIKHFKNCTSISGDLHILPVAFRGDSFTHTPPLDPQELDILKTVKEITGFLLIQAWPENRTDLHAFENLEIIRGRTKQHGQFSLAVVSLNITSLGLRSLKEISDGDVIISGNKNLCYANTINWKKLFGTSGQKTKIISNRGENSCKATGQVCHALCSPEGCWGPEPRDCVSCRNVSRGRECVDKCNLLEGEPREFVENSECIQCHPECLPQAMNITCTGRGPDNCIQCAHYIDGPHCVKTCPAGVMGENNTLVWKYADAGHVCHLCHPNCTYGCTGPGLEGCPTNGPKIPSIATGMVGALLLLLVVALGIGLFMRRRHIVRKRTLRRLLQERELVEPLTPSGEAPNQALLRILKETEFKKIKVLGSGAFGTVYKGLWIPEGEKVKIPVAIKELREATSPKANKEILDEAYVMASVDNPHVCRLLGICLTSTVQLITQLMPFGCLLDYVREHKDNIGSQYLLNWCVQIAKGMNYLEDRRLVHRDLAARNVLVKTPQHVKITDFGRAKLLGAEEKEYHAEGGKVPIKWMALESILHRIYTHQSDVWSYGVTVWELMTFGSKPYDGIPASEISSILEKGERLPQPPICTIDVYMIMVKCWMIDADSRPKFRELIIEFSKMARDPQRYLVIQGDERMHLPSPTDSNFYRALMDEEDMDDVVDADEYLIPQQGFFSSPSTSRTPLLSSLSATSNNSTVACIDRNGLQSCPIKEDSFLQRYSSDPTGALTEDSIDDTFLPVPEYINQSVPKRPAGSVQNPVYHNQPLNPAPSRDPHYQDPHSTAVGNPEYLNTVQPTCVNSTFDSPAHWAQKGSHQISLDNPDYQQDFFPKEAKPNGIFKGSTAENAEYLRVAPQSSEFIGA

DC50 (EGFR L858R; Table 9B) [nM] | DC50 (EGFR L858R-T790M; Table 9B) [nM] | DC50 (EGFR L858R; Table 9A) [nM] | DC50 (EGFR L858R-T790M; Table 9A) [nM] | SMILES
< 50 | < 50 | – | – | O=C1CCC(Nc2ccc(N3CCC(O)(CC(=O)N4CCN(c5ccc(-c6cc(F)c7c(c6)C(=O)N(C(C(=O)Nc6nccs6)c6ncn8c6CCC8)C7)cc5)CC4)CC3)c(F)c2)C(=O)N1 (centres unmarked) [Compound 83, 2-(6,7-dihydro-5H-pyrrolo[1,2-c]imidazol-1-yl)-2-[6-[4-[4-[2-[1-[4-[(2,6-dioxo-3-piperidyl)amino]-2-fluoro-phenyl]-4-hydroxy-4-piperidyl]acetyl]piperazin-1-yl]phenyl]-4-fluoro-1-oxo-isoindolin-2-yl]-N-thiazol-2-yl-acetamide]
< 50 | 50 to 150 | – | – | Cn1nc(N2CCC(=O)NC2=O)c2ccc(C3CCN(C(=O)CN4CCC(c5ccc(-c6cc(F)c7c(c6)C(=O)N(C(C(=O)Nc6nccs6)c6ncn8c6CCC8)C7)cc5)CC4)CC3)cc21 (centres unmarked) [Compound 85, 2-(6,7-dihydro-5H-pyrrolo[1,2-c]imidazol-1-yl)-2-[6-[4-[1-[2-[4-[3-(2,4-dioxohexahydropyrimidin-1-yl)-1-methyl-indazol-6-yl]-1-piperidyl]-2-oxo-ethyl]-4-piperidyl]phenyl]-4-fluoro-1-oxo-isoindolin-2-yl]-N-thiazol-2-yl-acetamide]
< 50 | < 50 | – | – | O=C1CCC(Nc2ccc(N3CCC(O)(CC(=O)N4CC5(C4)CN(c4ccc(-c6cc(F)c7c(c6)C(=O)N(C(C(=O)Nc6nccs6)c6ncn8c6CCC8)C7)cc4)C5)CC3)c(C(F)F)c2)C(=O)N1 (centres unmarked) [Compound 104, 2-(6-(4-(6-(2-(1-(2-(difluoromethyl)-4-((2,6-dioxopiperidin-3-yl)amino)phenyl)-4-hydroxypiperidin-4-yl)acetyl)-2,6-diazaspiro[3.3]heptan-2-yl)phenyl)-4-fluoro-1-oxoisoindolin-2-yl)-2-(6,7-dihydro-5H-pyrrolo[1,2-c]imidazol-1-yl)-N-(thiazol-2-yl)acetamide]
– | – | < 50 | 50 to 150 | O=C1CC[C@H](Nc2ccc(C3CCN(CC(=O)N4CCC(Cc5ccc(-c6cc(F)c7c(c6)C(=O)N(C(C(=O)Nc6nccs6)c6ncn8c6CCC8)C7)cc5)CC4)CC3)c(F)c2)C(=O)N1 (stereo partly drawn) [Compound 60, 2-(6,7-dihydro-5H-pyrrolo[1,2-c]imidazol-1-yl)-2-[6-[4-[[1-[2-[4-[4-[[(3S)-2,6-dioxo-3-piperidyl]amino]-2-fluoro-phenyl]-1-piperidyl]acetyl]-4-piperidyl]methyl]phenyl]-4-fluoro-1-oxo-isoindolin-2-yl]-N-thiazol-2-yl-acetamide]
– | – | < 50 | < 50 | O=C1CC[C@H](Nc2ccc(C3CCN(CC(=O)N4CCC(c5ccc(-c6cc(F)c7c(c6)C(=O)N(C(C(=O)Nc6nccs6)c6ncn8c6CCC8)C7)cc5)CC4)CC3)cc2)C(=O)N1 (stereo partly drawn) [Compound 22, 2-(6,7-dihydro-5H-pyrrolo[1,2-c]imidazol-1-yl)-2-(6-(4-(1-(2-(4-(4-(((S)-2,6-dioxopiperidin-3-yl)amino)phenyl)piperidin-1-yl)acetyl)piperidin-4-yl)phenyl)-4-fluoro-1-oxoisoindolin-2-yl)-N-(thiazol-2-yl)acetamide]
< 50 | < 50 | – | – | Cn1nc(N2CCC(=O)NC2=O)c2ccc(C3CCN(C(=O)CN4CC5(C4)CN(c4ccc(-c6ccc7cn(C(C(=O)Nc8nccs8)c8ncn9c8CCC9)nc7c6F)cn4)C5)CC3(F)F)cc21 (centres unmarked) [Compound 73, 2-(6,7-dihydro-5H-pyrrolo[1,2-c]imidazol-1-yl)-2-(6-(6-(6-(2-(4-(3-(2,4-dioxotetrahydropyrimidin-1(2H)-yl)-1-methyl-1H-indazol-6-yl)-3,3-difluoropiperidin-1-yl)-2-oxoethyl)-2,6-diazaspiro[3.3]heptan-2-yl)pyridin-3-yl)-7-fluoro-2H-indazol-2-yl)-N-(thiazol-2-yl)acetamide]
< 50 | < 50 | – | – | O=C1CC[C@@H](Nc2ccc(C3CCN(C(=O)CCCN4CCN(c5ccc(-c6cc(F)c7c(c6)C(=O)N(C(C(=O)Nc6nccs6)c6ncn8c6CCC8)C7)cc5)CC4)CC3)cc2)C(=O)N1 (stereo in doubt) [Compound 176, 2-(6,7-dihydro-5H-pyrrolo[1,2-c]imidazol-1-yl)-2-(6-(4-(4-(4-(4-(4-((2,6-dioxopiperidin-3-yl)amino)phenyl)piperidin-1-yl)-4-oxobutyl)piperazin-1-yl)phenyl)-4-fluoro-1-oxoisoindolin-2-yl)-N-(thiazol-2-yl)acetamide]
– | – | < 50 | < 50 | O=C1CC[C@H](Nc2ccc(C3CCN(CC(=O)N4CCC(n5cc(-c6cc(F)c7c(c6)C(=O)N(C(C(=O)Nc6nccs6)c6ncn8c6CCC8)C7)cn5)CC4)CC3)cc2)C(=O)N1 (stereo partly drawn) [Compound 28, 2-(6,7-dihydro-5H-pyrrolo[1,2-c]imidazol-1-yl)-2-[6-[1-[1-[2-[4-[4-[[(3S)-2,6-dioxo-3-piperidyl]amino]phenyl]-1-piperidyl]acetyl]-4-piperidyl]pyrazol-4-yl]-4-fluoro-1-oxo-isoindolin-2-yl]-N-thiazol-2-yl-acetamide]
– | – | < 50 | < 50 | O=C1CC[C@H](Nc2ccc(C3CCN(CC(=O)N4CCC(c5cnn(-c6cc(F)c7c(c6)C(=O)N(C(C(=O)Nc6nccs6)c6ncn8c6CCC8)C7)c5)CC4)CC3)cc2)C(=O)N1 (stereo partly drawn) [Compound 29, 2-(6,7-dihydro-5H-pyrrolo[1,2-c]imidazol-1-yl)-2-[6-[4-[1-[2-[4-[4-[[(3S)-2,6-dioxo-3-piperidyl]amino]phenyl]-1-piperidyl]acetyl]-4-piperidyl]pyrazol-1-yl]-4-fluoro-1-oxo-isoindolin-2-yl]-N-thiazol-2-yl-acetamide]
– | – | < 50 | < 50 | O=C1CC[C@H](Nc2ccc(C3CCN(CC(=O)N4CCN(c5ccc(-c6cc(F)c7cn(C(C(=O)Nc8nccs8)c8ncn9c8CCC9)nc7c6)cn5)CC4)CC3)c(F)c2)C(=O)N1 (stereo partly drawn) [Compound 68, 2-(6,7-dihydro-5H-pyrrolo[1,2-c]imidazol-1-yl)-2-(6-(6-(4-(2-(4-(4-(((S)-2,6-dioxopiperidin-3-yl)amino)-2-fluorophenyl)piperidin-1-yl)acetyl)piperazin-1-yl)pyridin-3-yl)-4-fluoro-2H-indazol-2-yl)-N-(thiazol-2-yl)acetamide]
50 to 150 | 50 to 150 | – | – | O=C1CC[C@H](Nc2ccc(C3CCN(CC(=O)N4CCCN(c5ccc(-c6cc(F)c7c(c6)C(=O)N(C(C(=O)Nc6nccs6)c6ncn8c6CCC8)C7)cc5)CC4)CC3)c(F)c2)C(=O)N1 (stereo partly drawn) [Compound 84, 2-(6,7-dihydro-5H-pyrrolo[1,2-c]imidazol-1-yl)-2-(6-(4-(4-(2-(4-(4-(((S)-2,6-dioxopiperidin-3-yl)amino)-2-fluorophenyl)piperidin-1-yl)acetyl)-1,4-diazepan-1-yl)phenyl)-4-fluoro-1-oxoisoindolin-2-yl)-N-(thiazol-2-yl)acetamide]
< 50 | < 50 | – | – | O=C1CCC(Nc2ccc(C3CCN(CC(=O)N4CCN(c5ccc(-c6cc(F)c7c(c6)C(=O)N(C(C(=O)Nc6nccs6)c6ncn8c6CCC8)C7)cc5)CC4)CC3)nc2)C(=O)N1 (centres unmarked) [Compound 179, 2-(6,7-dihydro-5H-pyrrolo[1,2-c]imidazol-1-yl)-2-[6-[4-[4-[2-[4-[5-[(2,6-dioxo-3-piperidyl)amino]-2-pyridyl]-1-piperidyl]acetyl]piperazin-1-yl]phenyl]-4-fluoro-1-oxo-isoindolin-2-yl]-N-thiazol-2-yl-acetamide]
– | – | < 50 | < 50 | O=C1CCC(Nc2ccc(C3CCN(CC(=O)N4CCN(c5ccc(-c6cc(F)c7cn(C(C(=O)Nc8nccs8)c8ncn9c8CCC9)nc7c6)cn5)CC4)CC3)nc2)C(=O)N1 (centres unmarked) [Compound 66, 2-(6,7-dihydro-5H-pyrrolo[1,2-c]imidazol-1-yl)-2-[6-[6-[4-[2-[4-[5-[(2,6-dioxo-3-piperidyl)amino]-2-pyridyl]-1-piperidyl]acetyl]piperazin-1-yl]-3-pyridyl]-4-fluoro-indazol-2-yl]-N-thiazol-2-yl-acetamide]

Reference: patent US20240158418A1 (C4 Therapeutics, Inc., priority 2021, published 2024)
